Where only a bound is given, the exact number is not on record here.

One experiment deals with LNCaP. The experiment can be described thus: Antiproliferative activity against androgen-positive human LNCaP cells assessed as cell growth inhibition measured after 72 hrs by SRB assay. The class given is functional, cell-based. On the technique in general: In SRB staining, fixed cells bind dye roughly in proportion to their protein.
A short description of experiment [1]: Cytotoxicity against androgen-negative human WPMY-1 cells assessed as cell growth inhibition measured after 72 hrs by SRB assay. It is filed as cell-based. As to conditions: WPMY-1, 72 h.
Experiment [2] deals with T1, Androgen receptor (Homo sapiens) (UniProt P10275).
T1 sequence (whole entry): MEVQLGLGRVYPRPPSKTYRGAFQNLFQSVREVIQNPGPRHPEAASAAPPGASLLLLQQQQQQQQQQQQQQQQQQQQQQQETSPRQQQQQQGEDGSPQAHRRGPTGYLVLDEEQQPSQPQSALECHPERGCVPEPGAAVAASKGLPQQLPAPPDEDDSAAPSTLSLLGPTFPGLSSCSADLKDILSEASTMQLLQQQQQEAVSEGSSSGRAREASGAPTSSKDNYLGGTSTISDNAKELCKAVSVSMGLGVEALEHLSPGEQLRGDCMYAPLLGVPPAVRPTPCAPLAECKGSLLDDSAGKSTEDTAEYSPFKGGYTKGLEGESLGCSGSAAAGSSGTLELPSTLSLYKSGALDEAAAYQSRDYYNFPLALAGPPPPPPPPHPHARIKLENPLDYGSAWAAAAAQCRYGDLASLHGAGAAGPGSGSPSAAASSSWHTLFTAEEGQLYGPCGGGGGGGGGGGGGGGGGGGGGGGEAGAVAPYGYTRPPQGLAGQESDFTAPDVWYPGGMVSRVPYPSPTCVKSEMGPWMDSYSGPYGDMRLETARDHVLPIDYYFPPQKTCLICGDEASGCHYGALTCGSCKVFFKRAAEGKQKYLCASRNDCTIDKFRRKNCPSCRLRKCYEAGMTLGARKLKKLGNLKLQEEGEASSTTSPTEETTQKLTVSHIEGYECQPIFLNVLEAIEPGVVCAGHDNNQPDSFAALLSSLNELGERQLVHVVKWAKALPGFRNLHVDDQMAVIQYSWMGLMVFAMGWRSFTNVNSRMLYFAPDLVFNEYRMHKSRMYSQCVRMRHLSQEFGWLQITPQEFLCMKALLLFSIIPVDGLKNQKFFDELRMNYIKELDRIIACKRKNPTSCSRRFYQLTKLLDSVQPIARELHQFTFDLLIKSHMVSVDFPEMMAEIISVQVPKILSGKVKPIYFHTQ
As to the kind of experiment: Binding affinity to androgen receptor LBD (unknown origin) at 10 uM incubated for 4 hrs under dark by fluorescence polarization based binding assay relative to R1881.

A further experiment relates to LNCaP C4-2B. As to the kind of experiment: Antiproliferative activity against androgen-sensitive positive human LNCaP C4-2B cells assessed as cell growth inhibition measured after 72 hrs by SRB assay. It is filed as functional, cell-based.
The subject of the next experiment is PC-3. As to the kind of experiment: Antiproliferative activity against androgen-negative human PC-3 cells assessed as cell growth inhibition measured after 72 hrs by SRB assay. It is filed as functional, cell-based. As to conditions: PC-3, 72 h.

What is called IC50 is the point on the concentration scale where inhibition reaches its midpoint. On to `CC1(C)C(=O)N(c2ccc(C#N)c(C(F)(F)F)c2)C(=O)N1Cc1ccc(-n2cc(COCCOCCOCCOCCOC(=O)CC34CC5CC(CC(C5)C3)C4)nn2)cc1`, for which the IC50 (in the experiment on LNCaP; in experiment [1]; in the experiment with LNCaP C4-2B; in the experiment with PC-3) was more than 80 µM throughout. Also, in experiment [2], the Activity is 51.8%.

As for `CC1(C)C(=O)N(c2ccc(C#N)c(C(F)(F)F)c2)C(=O)N1Cc1ccc(-n2cc(COCCOCCOCCOC(=O)CC34CC5CC(CC(C5)C3)C4)nn2)cc1`, the IC50 (in the experiment with LNCaP; in experiment [1]; in the experiment on LNCaP C4-2B; in the experiment with PC-3) was more than 80 µM in each case. The compound also came in with an Activity in experiment [2] of 20.1%.

Take `CC1(C)C(=O)N(c2ccc(C#N)c(C(F)(F)F)c2)C(=S)N1Cc1ccc(-n2cc(COCCCOC(=O)CC34CC5CC(CC(C5)C3)C4)nn2)cc1`: the IC50 (in the experiment with LNCaP; in experiment [1]; in the experiment with LNCaP C4-2B; in the experiment with PC-3) was more than 80 µM throughout. For the same compound, the Activity in experiment [2] is 26%.

On to `CC1(C)C(=O)N(c2ccc(C#N)c(C(F)(F)F)c2)C(=S)N1CCCCCCn1cc(COCCOCCOC(=O)CC23CC4CC(CC(C4)C2)C3)nn1`, for which the IC50 with LNCaP was 33.9 µM; in experiment [1], more than 80 µM; in the experiment on LNCaP C4-2B, more than 80 µM; with PC-3 it was more than 80 µM. In experiment [2], this compound had an Activity of 32.3%.

On to `CC1(C)C(=O)N(c2ccc(C#N)c(C(F)(F)F)c2)C(=S)N1CCCn1cc(COCCOCCOCCOCCOC(=O)CC23CC4CC(CC(C4)C2)C3)nn1`, for which the concentration for half-maximal inhibition (IC50) in the experiment with LNCaP was 4.25 µM; in experiment [1], more than 80 µM; in the experiment on LNCaP C4-2B it was 7.64 µM; in the experiment with PC-3, more than 80 µM. The compound further came in with an Activity in experiment [2] of 69.3%.

On to `CC1(C)C(=O)N(c2ccc(C#N)c(C(F)(F)F)c2)C(=O)N1Cc1cn(CCOCCOCCOCCOC(=O)CC23CC4CC(CC(C4)C2)C3)nn1`, for which the IC50 in the experiment with LNCaP was 6.87 µM; in experiment [1], more than 80 µM; in the experiment with LNCaP C4-2B it was 7.76 µM; in the experiment on PC-3, more than 80 µM. Further, the Activity in experiment [2] is 29.8%.

As for `CC1(C)C(=O)N(c2ccc(C#N)c(C(F)(F)F)c2)C(=O)N1CCCn1cc(COCCOCCOCCOCCOC(=O)CC23CC4CC(CC(C4)C2)C3)nn1`, the IC50 in the experiment with LNCaP was 9.96 µM; in experiment [1], more than 80 µM; in the experiment on LNCaP C4-2B, 11.7 µM; in the experiment on PC-3, more than 80 µM. In experiment [2], this compound showed an Activity of 47%.

As for `CC1(C)C(=O)N(c2ccc(C#N)c(C(F)(F)F)c2)C(=S)N1Cc1ccc(-n2cc(COCCOCCOCCOC(=O)CC34CC5CC(CC(C5)C3)C4)nn2)cc1`, the IC50 (with LNCaP; in experiment [1]; in the experiment with LNCaP C4-2B; with PC-3) was more than 80 µM throughout. For the same compound, the Activity in experiment [2] is 25.3%.

On to `CC1(C)C(=O)N(c2ccc(C#N)c(C(F)(F)F)c2)C(=O)N1Cc1cn(CCCOC(=O)CC23CC4CC(CC(C4)C2)C3)nn1`, for which the IC50 (in the experiment with LNCaP; in experiment [1]; in the experiment on LNCaP C4-2B; with PC-3) was more than 80 µM each time. This compound came in with an Activity in experiment [2] of 43.4%.

On to `CC1(C)C(=O)N(c2ccc(C#N)c(C(F)(F)F)c2)C(=O)N1Cc1ccc(-n2cc(COCCOCCOC(=O)CC34CC5CC(CC(C5)C3)C4)nn2)cc1`, for which the IC50 (in the experiment on LNCaP; in experiment [1]; in the experiment with LNCaP C4-2B; in the experiment on PC-3) was more than 80 µM in each case. In experiment [2], this compound displayed an Activity of 36.7%.

In the case of `CC1(C)C(=O)N(c2ccc(C#N)c(C(F)(F)F)c2)C(=O)N1Cc1ccc(-n2cc(COCCCOC(=O)CC34CC5CC(CC(C5)C3)C4)nn2)cc1`, the IC50 (in the experiment with LNCaP; in experiment [1]; in the experiment with LNCaP C4-2B; with PC-3) was more than 80 µM throughout. In experiment [2], this compound returned an Activity of 19.1%.

Regarding `CC1(C)C(=O)N(c2ccc(C#N)c(C(F)(F)F)c2)C(=O)N1CCCn1cc(COCCCOC(=O)CC23CC4CC(CC(C4)C2)C3)nn1`, the IC50 with LNCaP is 4.06 µM; in experiment [1], more than 80 µM; in the experiment with LNCaP C4-2B, 11.2 µM; in the experiment on PC-3 it was more than 80 µM. Besides, the Activity in experiment [2] is 24.3%.

Take `CC1(C)C(=O)N(c2ccc(C#N)c(C(F)(F)F)c2)C(=S)N1Cc1cn(CCCOC(=O)CC23CC4CC(CC(C4)C2)C3)nn1`: the half-maximal inhibitory concentration (IC50) (with LNCaP; in experiment [1]; with LNCaP C4-2B; in the experiment with PC-3) was more than 80 µM throughout. The Activity in experiment [2] was 52.8%.

For the compound `CC1(C)C(=O)N(c2ccc(C#N)c(C(F)(F)F)c2)C(=O)N1CCCn1cc(COCCOCCOC(=O)CC23CC4CC(CC(C4)C2)C3)nn1`, the IC50 in the experiment on LNCaP was 7.28 µM; in experiment [1], more than 80 µM; in the experiment with LNCaP C4-2B, 12.3 µM; with PC-3, more than 80 µM. Also, the Activity in experiment [2] turned out to be 41.9%.

On to `CC1(C)C(=O)N(c2ccc(C#N)c(C(F)(F)F)c2)C(=S)N1Cc1ccc(OCCOCCOC(=O)CC23CC4CC(CC(C4)C2)C3)cc1`, for which the IC50 (in the experiment with LNCaP; in experiment [1]; in the experiment with LNCaP C4-2B; in the experiment on PC-3) was more than 80 µM each time. In experiment [2], this compound gave an Activity of 34.2%.

Take `CC1(C)C(=O)N(c2ccc(C#N)c(C(F)(F)F)c2)C(=O)N1Cc1cn(CCOCCOCCOC(=O)CC23CC4CC(CC(C4)C2)C3)nn1`: the IC50 with LNCaP was 7.7 µM; in experiment [1], more than 80 µM; with LNCaP C4-2B, 8.34 µM; in the experiment with PC-3 it was more than 80 µM. The compound further returned an Activity in experiment [2] of 46.7%.

For `CC1(C)C(=O)N(c2ccc(C#N)c(C(F)(F)F)c2)C(=S)N1Cc1ccc(-n2cc(COCCOCCOCCOCCOC(=O)CC34CC5CC(CC(C5)C3)C4)nn2)cc1`, the IC50 (in the experiment on LNCaP; in experiment [1]; in the experiment on LNCaP C4-2B; in the experiment with PC-3) was more than 80 µM each time. Besides, the Activity in experiment [2] came to 39.9%.

For the compound `CC1(C)C(=O)N(c2ccc(C#N)c(C(F)(F)F)c2)C(=S)N1Cc1cn(CCOCCOCCOC(=O)CC23CC4CC(CC(C4)C2)C3)nn1`, the IC50 with LNCaP was 9.13 µM; in experiment [1] it was more than 80 µM; in the experiment with LNCaP C4-2B, more than 80 µM; in the experiment on PC-3, more than 80 µM. Moreover, the Activity in experiment [2] turned out to be 35.1%.

Take `CC1(C)C(=O)N(c2ccc(C#N)c(C(F)(F)F)c2)C(=S)N1Cc1ccc(-n2cc(COCCOCCOCCOCCOCCOC(=O)CC34CC5CC(CC(C5)C3)C4)nn2)cc1`: the IC50 is more than 80 µM with LNCaP, more than 80 µM in experiment [1], 12.2 µM with LNCaP C4-2B and more than 80 µM in the experiment with PC-3. This compound also came in with an Activity in experiment [2] of 39.1%.

Consider `CC1(C)C(=O)N(c2ccc(C#N)c(C(F)(F)F)c2)C(=S)N1Cc1cn(CCOCCOCCOCCOC(=O)CC23CC4CC(CC(C4)C2)C3)nn1`, for which the IC50 with LNCaP was 6.31 µM; in experiment [1], more than 80 µM; in the experiment with LNCaP C4-2B, 11.2 µM; in the experiment on PC-3 it was more than 80 µM. Moreover, the Activity in experiment [2] was determined as 69.1%.

With `CC1(C)C(=O)N(c2ccc(C#N)c(C(F)(F)F)c2)C(=S)N1CCCn1cc(COCCOCCOCCOCCOCCOC(=O)CC23CC4CC(CC(C4)C2)C3)nn1`, the IC50 is 6.92 µM in the experiment on LNCaP, more than 80 µM in experiment [1], 6.61 µM with LNCaP C4-2B and more than 80 µM in the experiment with PC-3. In addition, the Activity in experiment [2] came to 33.7%.

As to `CC1(C)C(=O)N(c2ccc(C#N)c(C(F)(F)F)c2)C(=S)N1CCCn1cc(COCCCOC(=O)CC23CC4CC(CC(C4)C2)C3)nn1`, the IC50 in the experiment on LNCaP was 6.64 µM; in experiment [1], more than 80 µM; in the experiment on LNCaP C4-2B, 10.6 µM; in the experiment on PC-3, more than 80 µM. Further, the Activity in experiment [2] worked out at 31.6%.

As for `CC1(C)C(=O)N(c2ccc(C#N)c(C(F)(F)F)c2)C(=S)N1Cc1ccc(OCCOCCOCCOCCOC(=O)CC23CC4CC(CC(C4)C2)C3)cc1`, the concentration for half-maximal inhibition (IC50) (in the experiment on LNCaP; in experiment [1]; in the experiment with LNCaP C4-2B; in the experiment on PC-3) was more than 80 µM throughout. Also, in experiment [2], the Activity turned out to be 35.8%.

As for `CC1(C)C(=O)N(c2ccc(C#N)c(C(F)(F)F)c2)C(=S)N1Cc1ccc(-n2cc(COCCOCCOC(=O)CC34CC5CC(CC(C5)C3)C4)nn2)cc1`, the half-inhibitory concentration (IC50) (in the experiment on LNCaP; in experiment [1]; in the experiment with LNCaP C4-2B; in the experiment with PC-3) was more than 80 µM each time. Besides, the Activity in experiment [2] is 35.8%.

Take `CC1(C)C(=O)N(c2ccc(C#N)c(C(F)(F)F)c2)C(=O)N1Cc1ccc(OCCOCCOC(=O)CC23CC4CC(CC(C4)C2)C3)cc1`: the concentration for half-maximal inhibition (IC50) (in the experiment on LNCaP; in experiment [1]; with LNCaP C4-2B; with PC-3) was more than 80 µM each time. The compound also came in with an Activity in experiment [2] of 26.3%.

Values taken from ChEMBL document CHEMBL4706528, “The design, synthesis and anti-tumor mechanism study of new androgen receptor degrader” (Eur J Med Chem, 2020).
